The target of this experiment is GST-MEK / GST-MAPK (p45MEK, p44MAP kinase) cascade. The experiment is described as follows: Cascade assay for inhibitors of the MAP kinase pathway (APK). The class given is biochemical. On the procedure:
Cascade assay for inhibitors of the MAP kinase pathway
Incorporation of ^32P into myelin basic protein (MBP) is assayed in the presence of a glutathione S-transferase fusion protein containing p44MAP kinase (GST-MAPK) and a glutathione S-transferase fusion protein containing p45MEK (GST-MEK). The assay solution contains 20 mM HEPES, pH 7.4, 10 mM MgCl2, 1 mM MnCl2, 1 mM EGTA, 50,μM [γ-^32P]ATP, 10 μg GST-MEK, 0.5 μg GST-MAPK and 40 μg MBP in a final volume of 100 μL. Reactions are stopped after 20 minutes by addition of trichloroacetic acid and filtered through a GF/C filter mat. ^32P retained on the filter mat is determined using a 120S Betaplate. Compounds are assessed at 10 μM for ability to inhibit incorporation of ^32P
To ascertain whether compounds are inhibiting GST-MEK or GST MAPK, two additional protocols are employed. In the first protocol, compounds are added to tubes containing GST-MEK, followed by addition of GST-MAPK, MBP and [γ-^32P]ATP. In the second protocol, compounds are added to tubes containing both GST-MEK and GST-MAPK, followed by MBP and [γ-^32P]ATP.
Compounds that show activity in both protocols are scored as MAPK inhibitors, while compounds showing activity in only the first protocol are scored as MEK inhibitors.

For the compound `O=S(=O)(NOCC1CC1)c1ccc(F)c(F)c1Nc1ccc(I)cc1Cl` [PD 0297447, 2-(2-Chloro-4-iodo-phenylamino)-N-cyclopropylmethoxy-3,4-difluoro-benzenesulfonamide], the midpoint of inhibition, the IC50, lay at 0.965 µM.

The record behind these values is patent publication US6455582B1, “Sulohydroxamic acids and sulohyroxamates and their use as MEK inhibitors” (Warner-Lambert Company, priority 1999, dated 2002).
